The record followed here is patent publication US9474790B2, “Stable, protracted GLP-1/glucagon receptor co-agonists for medical use” (Novo Nordisk A/S, priority 2013, dated 2016).

Numbered stars: 1 amine (or outer) side, 2 acyl side, 3 side chain; on linkers, the order of the positions; unused ones are H or OH. Square brackets hold non-standard residues; d marks the D form. Side chains are listed from the residue outwards. Peptide text beside a SMILES is read from it. * marks the point of attachment. C18 diacid = O=C(O)CCCCCCCCCCCCCCCCC(=O)*; γGlu = O=C(O)[C@H](CCC(=O)[*:2])N[*:1]; Ac4c = NC1(C(=O)O)CCC1; AEEA = NCCOCCOCC(=O)O; Aib = CC(C)(N)C(=O)O

The series is described as follows: Thioflavin T (ThT) fibrillation assay for physical stability. In kind it is physicochemical. The conditions noted are these: 250 μM in 10 mM HEPES buffer, pH 7.5, 37° C., shaking 960 rpm. An outline of the steps: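 Peptide at 250 μM in 10 mM HEPES pH 7.5 with 1 μM ThT, at 37° C with 960 rpm orbital shaking. Fluorescence (ex 444/em 485 nm) read every 20 min after 10 min pre-incubation; sigmoidal fit gives lag time (t0−2τ) and kapp (1/τ). Recovery is RP-HPLC peptide in the centrifuged, 0.22 μm-filtered supernatant as % of initial.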
In the case of `CC(C)C[C@H](NC(=O)[C@H](Cc1ccc(O)cc1)NC(=O)[C@H](CCCCN)NC(=O)[C@H](CO)NC(=O)[C@H](CC(C)C)NC(=O)[C@H](CC(=O)O)NC(=O)[C@H](CO)NC(=O)[C@@H](NC(=O)[C@H](Cc1ccccc1)NC(=O)[C@@H](NC(=O)CNC(=O)[C@H](CCC(N)=O)NC(=O)C(C)(C)NC(=O)[C@@H](N)Cc1c[nH]cn1)[C@@H](C)O)[C@@H](C)O)C(=O)N[C@@H](CC(=O)O)C(=O)N[C@@H](C)C(=O)N[C@@H](CCCNC(=N)N)C(=O)N[C@@H](CCCNC(=N)N)C(=O)N[C@@H](C)C(=O)N[C@@H](CCCNC(=N)N)C(=O)N[C@@H](CC(=O)O)C(=O)N[C@@H](Cc1ccccc1)C(=O)N[C@H](C(=O)N[C@@H](CCC(N)=O)C(=O)N[C@@H](Cc1c[nH]c2ccccc12)C(=O)N[C@@H](CC(C)C)C(=O)N[C@@H](CC(C)C)C(=O)N[C@@H](CO)C(=O)N[C@@H](CCCCNC(=O)CC[C@H](NC(=O)CC[C@H](NC(=O)COCCOCCNC(=O)COCCOCCNC(=O)CC[C@H](NC(=O)CCCCCCCCCCCCCCCCC(=O)O)C(=O)O)C(=O)O)C(=O)O)C(N)=O)C(C)C` [Example 66, N^ε29-[(4S)-4-carboxy-4-[[(4S)-4-carboxy-4-[[2-[2-[2-[[2-[2-[2-[[(4S)-4-carboxy-4-(17-carboxyheptadecanoylamino)butanoyl]amino]ethoxy]ethoxy]acetyl]amino]ethoxy]ethoxy]acetyl]amino]butanoyl]amino]butanoyl]-[Aib2,Leu10,Ala16,Arg20,Leu27,Ser28,Lys29]-Glucagon amide] (H-H[Aib]QGTFTSDLSKYLDARRARDFVQWLLSK([γGlu-γGlu-AEEA-AEEA-γGlu-C18 diacid])-NH2; N-terminus assumed), the THT assay Lag time (Ex. 76) was found to be 45 h.
In turn, `CC(C)C[C@H](NC(=O)[C@H](Cc1ccc(O)cc1)NC(=O)[C@H](CCCCN)NC(=O)[C@H](CO)NC(=O)[C@H](CC(C)C)NC(=O)[C@H](CC(=O)O)NC(=O)[C@H](CO)NC(=O)[C@@H](NC(=O)[C@H](Cc1ccccc1)NC(=O)[C@@H](NC(=O)CNC(=O)[C@H](CCC(N)=O)NC(=O)C(C)(C)NC(=O)[C@@H](N)Cc1c[nH]cn1)[C@@H](C)O)[C@@H](C)O)C(=O)N[C@@H](CCC(=O)O)C(=O)N[C@@H](CO)C(=O)N[C@@H](CCCNC(=N)N)C(=O)N[C@@H](CCCNC(=N)N)C(=O)N[C@@H](C)C(=O)N[C@@H](CCCNC(=N)N)C(=O)N[C@@H](CCC(=O)O)C(=O)N[C@@H](Cc1ccccc1)C(=O)N[C@H](C(=O)N[C@@H](CCC(N)=O)C(=O)N[C@@H](Cc1c[nH]c2ccccc12)C(=O)N[C@@H](CC(C)C)C(=O)N[C@@H](CC(C)C)C(=O)N[C@@H](CCCCNC(=O)CC[C@H](NC(=O)CC[C@H](NC(=O)[C@H](CO)NC(=O)[C@H](CCC(=O)O)NC(=O)[C@H](CO)NC(=O)CC[C@H](NC(=O)CC[C@H](NC(=O)CCCCCCCCCCCCCCCCC(=O)O)C(=O)O)C(=O)O)C(=O)O)C(=O)O)C(=O)N[C@H](C(N)=O)[C@@H](C)O)C(C)C` [Example 67, N^ε28-[(4S)-4-carboxy-4-[[(4S)-4-carboxy-4-[[(2S)-2-[[(2S)-4-carboxy-2-[[(2S)-2-[[(4S)-4-carboxy-4-[[(4S)-4-carboxy-4-(17-carboxyheptadecanoylamino)butanoyl]amino]butanoyl]amino]-3-hydroxypropanoyl]amino]butanoyl]amino]-3-hydroxypropanoyl]amino]butanoyl]amino]butanoyl]-[Aib2,Leu10,Glu15,Arg20,Glu21,Leu27,Lys28]-Glucagon amide] (H-H[Aib]QGTFTSDLSKYLESRRAREFVQWLLK([γGlu-γGlu-Ser-Glu-Ser-γGlu-γGlu-C18 diacid])T-NH2; N-terminus assumed) registered a THT assay Lag time (Ex. 76) of 45 h.
The compound `CC(C)C[C@H](NC(=O)[C@H](Cc1ccc(O)cc1)NC(=O)[C@H](CCCCN)NC(=O)[C@H](CO)NC(=O)[C@H](CC(C)C)NC(=O)[C@H](CC(=O)O)NC(=O)[C@H](CO)NC(=O)[C@@H](NC(=O)[C@H](Cc1ccccc1)NC(=O)[C@@H](NC(=O)CNC(=O)[C@H](CCC(N)=O)NC(=O)C1(NC(=O)[C@@H](N)Cc2c[nH]cn2)CCC1)[C@@H](C)O)[C@@H](C)O)C(=O)N[C@@H](CCC(=O)O)C(=O)N[C@@H](CO)C(=O)N[C@@H](CCCCN)C(=O)N[C@@H](CCCNC(=N)N)C(=O)N[C@@H](C)C(=O)N[C@@H](CCCNC(=N)N)C(=O)N[C@@H](CCC(=O)O)C(=O)N[C@@H](Cc1ccccc1)C(=O)N[C@H](C(=O)N[C@@H](CCC(N)=O)C(=O)N[C@@H](Cc1c[nH]c2ccccc12)C(=O)N[C@@H](CC(C)C)C(=O)N[C@@H](CC(C)C)C(=O)N[C@@H](CCCCNC(=O)CC[C@H](NC(=O)CC[C@H](NC(=O)[C@H](CO)NC(=O)[C@H](CCC(=O)O)NC(=O)[C@H](CO)NC(=O)CC[C@H](NC(=O)CC[C@H](NC(=O)CCCCCCCCCCCCCCCCC(=O)O)C(=O)O)C(=O)O)C(=O)O)C(=O)O)C(=O)N[C@H](C(N)=O)[C@@H](C)O)C(C)C` [Example 68, N^ε28-[(4S)-4-carboxy-4-[[(4S)-4-carboxy-4-[[(2S)-2-[[(2S)-4-carboxy-2-[[(2S)-2-[[(4S)-4-carboxy-4-[[(4S)-4-carboxy-4-(17-carboxyheptadecanoylamino)butanoyl]amino]butanoyl]amino]-3-hydroxypropanoyl]amino]butanoyl]amino]-3-hydroxypropanoyl]amino]butanoyl]amino]butanoyl]-[Acb2,Leu10,Glu15,Lys17,Arg20,Glu21,Leu27,Lys28]-Glucagon amide] (H-H[Ac4c]QGTFTSDLSKYLESKRAREFVQWLLK([γGlu-γGlu-Ser-Glu-Ser-γGlu-γGlu-C18 diacid])T-NH2; N-terminus assumed) gave a THT assay Lag time (Ex. 76) of 45 h.
Under `CC(C)C[C@H](NC(=O)[C@H](Cc1ccc(O)cc1)NC(=O)[C@H](CCCCN)NC(=O)[C@H](CO)NC(=O)[C@H](CC(C)C)NC(=O)[C@H](CC(=O)O)NC(=O)[C@H](CO)NC(=O)[C@@H](NC(=O)[C@H](Cc1ccccc1)NC(=O)[C@@H](NC(=O)CNC(=O)[C@H](CCC(N)=O)NC(=O)C(C)(C)NC(=O)[C@@H](N)Cc1c[nH]cn1)[C@@H](C)O)[C@@H](C)O)C(=O)N[C@@H](CCC(=O)O)C(=O)N[C@@H](CO)C(=O)N[C@@H](CCCCN)C(=O)N[C@@H](CCCNC(=N)N)C(=O)N[C@@H](C)C(=O)N[C@@H](CCCNC(=N)N)C(=O)N[C@@H](CO)C(=O)N[C@@H](Cc1ccccc1)C(=O)N[C@H](C(=O)N[C@@H](CCC(N)=O)C(=O)N[C@@H](Cc1c[nH]c2ccccc12)C(=O)N[C@@H](CC(C)C)C(=O)N[C@@H](CC(C)C)C(=O)N[C@@H](CCCCNC(=O)CC[C@H](NC(=O)CC[C@H](NC(=O)[C@H](CO)NC(=O)[C@H](CCC(=O)O)NC(=O)[C@H](CO)NC(=O)CC[C@H](NC(=O)CC[C@H](NC(=O)CCCCCCCCCCCCCCCCC(=O)O)C(=O)O)C(=O)O)C(=O)O)C(=O)O)C(=O)N[C@H](C(N)=O)[C@@H](C)O)C(C)C` [Example 69, N^ε28-[(4S)-4-carboxy-4-[[(4S)-4-carboxy-4-[[(2S)-2-[[(2S)-4-carboxy-2-[[(2S)-2-[[(4S)-4-carboxy-4-[[(4S)-4-carboxy-4-(17-carboxyheptadecanoylamino)butanoyl]amino]butanoyl]amino]-3-hydroxypropanoyl]amino]butanoyl]amino]-3-hydroxypropanoyl]amino]butanoyl]amino]butanoyl]-[Aib2,Leu10,Glu15,Lys17,Arg20,Ser21,Leu27,Lys28]-Glucagon amide] (H-H[Aib]QGTFTSDLSKYLESKRARSFVQWLLK([γGlu-γGlu-Ser-Glu-Ser-γGlu-γGlu-C18 diacid])T-NH2; N-terminus assumed) stands 45 h.
